The values that follow come from patent US8450352B2, “Thiazole compounds and their use for inhibiting phosphodiesterase 4, TNF-α, and IL-4” (Otsuka Pharmaceutical Co., Ltd., priority 2004, dated 2013).

Where a name gives a salt, the structure may show the parent alone.

On to `CCOc1ccc(-c2nc(/C=C/C(=O)c3ccc(OC(C)=O)c(OC(C)=O)c3)cs2)cc1OCC` [Example 8], for which the melting point (as a rule, the temperature, or range, at which the solid turns liquid) was 139 to 140 °C.

Turning to `CCOc1ccc(C(=O)CCc2csc(-c3ccc(OC)c(OC)c3)n2)cc1OCC` [Example 93], the melting point is 141.3 to 142.4 °C.

For the compound `CCOc1ccc(-c2nc(CCC(=O)c3ccc(O)c(O)c3)cs2)cc1OCC` (as salt: hydrochloride) [Example 92], the melting point was 153.2 to 153.8 °C.

`CCOc1ccc(-c2nc(/C=C/C(=O)c3ccc(O)c(C(=O)O)c3)cs2)cc1OCC` [Example 19] came in with a melting point of 195 to 196 °C.

`COc1ccc(-c2nc(/C=C/C(=O)c3ccc(O)cc3)cs2)cc1OC` [Example 37] had a melting point of 174 to 177 °C.

`CCOc1ccc(-c2nc(/C=C/C(=O)c3ccc(C(=O)OC)cc3)cs2)cc1OCC` [Example 17]: the melting point was 150 to 151 °C.

Turning to `CCOc1ccc(-c2nc(CCC(=O)c3cc(Cl)ccc3OC)cs2)cc1OCC` [Example 108], the melting point fell in the range of 90.2 to 92 °C.

As to `COc1ccc(-c2nc(/C=C/C(=O)c3ccc(O)c(C(=O)O)c3)cs2)cc1OC` [Example 39], the melting point fell in the range of 227.4 to 228 °C.

`COc1ccc(-c2nc(/C=C/C(=O)c3cc(C(C)(C)C)c(O)c(C(C)(C)C)c3)cs2)cc1OC` [Example 22] yielded a melting point of 228 to 230 °C.

In turn, `CCOc1ccc(-c2nc(/C=C/C(=O)c3ccc(C(C)=O)cc3)cs2)cc1OCC` [Example 23] had a melting point of 128 to 129 °C.

`CCOc1ccc(-c2nc(/C=C/C(=O)c3cccc([N+](=O)[O-])c3)cs2)cc1OCC` [Example 24] displayed a melting point of 125 to 126 °C.

As to `CCOc1ccc(-c2nc(CCC(O)c3ccccc3OC)cs2)cc1OCC` (stereo not drawn) [Example 186, 3-[2-(3,4-diethoxyphenyl)thiazole-4-yl]-1-(2-methoxyphenyl)-1-propanol], the melting point lay in the range of 78.2 to 79 °C.

`CCOc1ccc(-c2nc(/C=C/C(=O)c3ccc(Cl)cc3)cs2)cc1OCC` [Example 21] came in with a melting point of 131 to 133 °C.

Compound `CCOc1ccc(-c2nc(CCC(=O)c3ccccc3F)cs2)cc1OCC` [Example 101] had a melting point of 82.5 to 83.5 °C.

In turn, `CCOc1ccc(-c2nc(CCC(=O)c3ccccc3C(=O)OC)cs2)cc1OCC` [Example 240, methyl 2-{3-[2-(3,4-diethoxyphenyl)thiazole-4-yl]propionyl}benzoate] yielded a melting point of 91.7 to 92.9 °C.

Turning to `CCOc1ccc(-c2nc(/C=C/C(=O)c3ccccc3[N+](=O)[O-])cs2)cc1OCC` [Example 27], the melting point is 142 to 143 °C.

The compound `CCOc1cc(-c2nc(/C=C/C(=O)c3cc(OC)ccc3OC)cs2)ccc1OC` [Example 40] yielded a melting point of 79 to 82 °C.

`CCOc1ccc(-c2nc(/C=C/C(=O)c3ccccc3O)cs2)cc1OCC` (as salt: hydrobromid) [Example 15] had a melting point of 126 to 127 °C.

Take `CCOc1ccc(-c2nc(/C=C/C(=O)c3ccc(O)cc3)cs2)cc1OCC` [Example 10]: the melting point fell in the range of 133 to 134 °C.

Compound `COc1ccc(-c2nc(CCC(=O)c3ccc(OC(C)=O)c(OC(C)=O)c3)cs2)cc1OC` [Example 94] had a melting point of 128 to 128.5 °C.

With `CCOc1ccc(-c2nc(CCC(=O)c3ccccc3O)cs2)cc1OCC` [Example 98], the melting point was in the range of 113.7 to 114.9 °C.

Consider `CCOc1ccc(-c2nc(/C=C/C(=O)c3cc(OC)c(OC)c(OC)c3)cs2)cc1OCC` [Example 11], for which the melting point fell in the range of 155 to 156 °C.

The compound `COc1ccc(-c2nc(CC(=O)Cc3ccc(OC(C)=O)c(OC(C)=O)c3)cs2)cc1OC` [Example 242, 3-[2-(3,4-dimethoxyphenyl)thiazole-4-yl]-1-(3,4-diacetoxyphenyl)propanone] returned a melting point of 128 to 128.5 °C.

On to `CCOc1ccc(-c2nc(/C=C/C(=O)c3ccc(C#N)cc3)cs2)cc1OCC` [Example 18], for which the melting point was 164 to 167 °C.
